Data: US11225503B2, “Crystobactamides” (HELMHOLTZ-ZENTRUM FÜR INFEKTIONSFORSCHUNG GMBH, priority 2013, dated 2022)
≈ marks a conversion by molar mass, not a printed value. Like-named read-outs stand apart in the source and are kept apart here.

Assays:
E. coli topoisomerase IV = target: T1, E. coli topoisomerase IV (Escherichia coli, UniProt P0AFI2+P20083); assay: Topoisomerase IV relaxation (inhibition) assay; assay type: biochemical
T1 construct: purchased Inspiralis (Norwich, UK)
Experimental: Prokaryotic DNA gyrase and topoisomerase IV share a high degree of homology and gyrase inhibitors typically show a topoisomerase IV inhibitory activity.^8 To test the influence of the cystobactamides on topoisomerase IV a commercial E. coli topoisomerase IV kit (Inspiralis) was used.
The topo IV reactions were titrated with varying concentrations of A-D and resolved by agarose gel electrophoresis. For IC50 determination the band intensity of the supercoiled plasmid was determined using Adobe Photoshop, plotted vs. [cystobactamide] and fitted using Hill's equation.
(§1) Following natural product concentrations were used in the assay:
(§2) Control reactions were: no enzyme and a standard reaction in presence of 5% (v/v) DMSO. All reaction samples were equilibrated for 10 minutes at room-temperature in the absence of DNA. Then the relaxed plasmid was added to start the reaction.
(§3) To determine IC50 values, the formation of supercoiled (gyrase) or relaxed (topoisomerase I, II IV) plasmid was quantified using Adobe Photoshop (Histogram mode). Plotting of these values versus the compound concentration yielded sigmoidal shaped curves, which were fitted using Hill's equation (Origin Pro 8.5). All determined IC50 values are the averages of three independent experiments.

[1] = system: E. coli strain WT III (marR Δ74 bp); assay: Susceptibility of mutant E. coli strains, MIC; assay type: cell-based; conditions: Escherichia coli
Experimental: (§4) Bacterial wildtype strains used in susceptibility assays were either part of our strain collection or purchased from the German Collection of Microorganisms and Cell Cultures (DSMZ) or from the American Type Culture Collection (ATCC). E. coli strain WT^[6] and E. coli mutants were kindly provided by Prof. Dr. P. Heisig, Pharmaceutical Biology and Microbiology, University of Hamburg.
(§5) MIC values were determined in microdilution assays. Overnight cultures were diluted in the appropriate growth medium to achieve an inoculum of 10^4-10^6 cfu/mL. Yeasts were grown in Myc medium (1% phytone peptone, 1% glucose, 50 mM HEPES, pH 7.0), S. pneumonia and E. faecalis in tryptic soy broth (TSB: 1.7% peptone casein, 0.3% peptone soymeal, 0.25% glucose, 0.5% NaCl, 0.25% K2HPO4; pH 7.3); M. smegmatis in Middlebrook 7H9 medium supplemented with 10% Middlebrook ADC enrichment and 2 ml/l glycerol). All other listed bacteria were grown in Müller-Hinton broth (0.2% beef infusion solids, 1.75% casein hydrolysate, 0.15% starch, pH 7.4). Cystobactamides and reference drugs were added directly to the cultures in sterile 96-well plates as duplicates and serial dilutions were prepared. Microorganisms were grown on a microplate shaker (750 rpm, 30-37° C., 18-48 h), except S. pneumonia, which was grown at non-shaking conditions (37° C., 5% CO2, 18 h). Growth inhibition was assessed by visual inspection and the MIC was defined as the lowest concentration of compound that inhibited visible growth.

[2] = target: T2, H. sapiens topoisomerase II (Homo sapiens, UniProt P11388); assay: Topoisomerase II relaxation (inhibition) assay; assay type: biochemical; conditions: for IC50: H. sapiens Topoisomerase II inhibition assay, read-out: IC50
T2 construct: purchased Inspiralis (Norwich, UK)
T2 sequence (P11388 whole entry): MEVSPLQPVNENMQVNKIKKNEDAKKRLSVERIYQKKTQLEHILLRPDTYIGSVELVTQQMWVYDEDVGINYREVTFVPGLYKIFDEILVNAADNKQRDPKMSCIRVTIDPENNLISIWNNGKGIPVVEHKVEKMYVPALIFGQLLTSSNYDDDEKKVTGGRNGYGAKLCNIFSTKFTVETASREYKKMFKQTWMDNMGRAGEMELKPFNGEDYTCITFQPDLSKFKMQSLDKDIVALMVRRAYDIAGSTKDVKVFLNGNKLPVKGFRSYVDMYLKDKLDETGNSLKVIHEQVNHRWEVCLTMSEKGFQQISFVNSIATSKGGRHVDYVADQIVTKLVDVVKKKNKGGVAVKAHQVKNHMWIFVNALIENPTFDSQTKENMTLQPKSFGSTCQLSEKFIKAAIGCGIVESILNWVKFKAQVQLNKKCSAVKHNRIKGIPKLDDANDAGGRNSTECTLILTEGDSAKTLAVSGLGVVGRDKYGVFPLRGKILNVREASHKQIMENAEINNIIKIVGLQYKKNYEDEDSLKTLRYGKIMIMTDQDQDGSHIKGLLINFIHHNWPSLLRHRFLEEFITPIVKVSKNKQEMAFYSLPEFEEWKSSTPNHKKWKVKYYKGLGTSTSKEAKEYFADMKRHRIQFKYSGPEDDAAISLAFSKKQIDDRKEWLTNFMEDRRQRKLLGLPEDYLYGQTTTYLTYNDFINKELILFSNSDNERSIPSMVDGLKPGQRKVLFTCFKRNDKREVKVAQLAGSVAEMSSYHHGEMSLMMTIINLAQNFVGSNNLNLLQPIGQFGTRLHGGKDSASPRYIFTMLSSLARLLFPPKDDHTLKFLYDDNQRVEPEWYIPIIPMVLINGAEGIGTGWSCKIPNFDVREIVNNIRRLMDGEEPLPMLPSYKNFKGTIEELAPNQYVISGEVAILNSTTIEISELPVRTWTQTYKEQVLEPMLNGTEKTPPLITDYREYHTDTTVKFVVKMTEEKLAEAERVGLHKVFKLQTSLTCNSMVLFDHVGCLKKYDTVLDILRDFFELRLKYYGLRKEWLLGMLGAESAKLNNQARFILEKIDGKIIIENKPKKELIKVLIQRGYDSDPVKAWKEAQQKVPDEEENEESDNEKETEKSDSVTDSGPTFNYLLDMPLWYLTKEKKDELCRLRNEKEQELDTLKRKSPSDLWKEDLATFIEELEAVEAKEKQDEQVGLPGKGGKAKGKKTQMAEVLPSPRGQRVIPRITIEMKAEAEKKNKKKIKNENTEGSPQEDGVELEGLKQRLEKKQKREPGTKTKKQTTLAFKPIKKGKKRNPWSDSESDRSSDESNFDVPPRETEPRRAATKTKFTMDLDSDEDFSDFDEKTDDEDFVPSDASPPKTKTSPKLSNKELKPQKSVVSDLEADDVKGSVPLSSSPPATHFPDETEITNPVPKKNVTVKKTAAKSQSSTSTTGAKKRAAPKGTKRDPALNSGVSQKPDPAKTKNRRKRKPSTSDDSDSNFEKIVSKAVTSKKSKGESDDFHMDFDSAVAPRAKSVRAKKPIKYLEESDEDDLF
Experimental: The topo II reactions were titrated with varying concentrations of A-D and resolved by agarose gel electrophoresis. For IC50 determination the band intensity of the supercoiled plasmid was determined using Adobe Photoshop, plotted vs. [cystobactamide] and fitted using Hill's equation.
as §1, §2, §3

[3] = system: E. coli strain WT-4 M2.1 (parC mutation); assay: Susceptibility of mutant E. coli strains, MIC; assay type: cell-based; conditions: Escherichia coli
Description: Cystobactamides were screened using a panel of E. coli strains with typical mutations in gyrA and parC genes (Table 11).
as §4, §5

[4] = system: Escherichia coli DSM-12242 (NAL^R); assay: Susceptibility testing, MIC microdilution; assay type: cell-based; conditions: Escherichia coli, DSM12242
Experimental: as §4, §5

[5] = system: Burkholderia cenocepacia DSM-16553; assay: Susceptibility testing, MIC microdilution; assay type: cell-based; conditions: Burkholderia cenocepacia, DSM16553
Experimental: as §4, §5

[6] = system: Escherichia coli ATCC25922; assay: Susceptibility testing, MIC microdilution; assay type: cell-based
Experimental: as §4, §5

[7] = system: Escherichia coli DSM-1116; assay: Susceptibility testing, MIC microdilution; assay type: cell-based; conditions: Escherichia coli, DSM1116
Experimental: as §4, §5

[8] = system: Pseudomonas aeruginosa PA14; assay: Susceptibility testing, MIC microdilution; assay type: cell-based
Experimental: as §4, §5

[9] = system: Streptococcus pneumoniae DSM-20566; assay: Susceptibility testing, MIC microdilution; assay type: cell-based; conditions: Streptococcus pneumoniae, DSM20566
Experimental: as §4, §5

[10] = system: Micrococcus luteus DSM-1790; assay: Susceptibility testing, MIC microdilution; assay type: cell-based; conditions: Micrococcus luteus, DSM1790
Experimental: as §4, §5

[11] = system: Staphylococcus aureus ATCC29213; assay: Susceptibility testing, MIC microdilution; assay type: cell-based
Experimental: as §4, §5

Pichia anomala DSM-6766 = assay: Susceptibility testing, MIC microdilution; assay type: cell-based; conditions: Hansenula anomala, DSM6766
Experimental: as §4, §5

[12] = system: Enterobacter aerogenes DSM-30053; assay: Susceptibility testing, MIC microdilution; assay type: cell-based; conditions: Klebsiella aerogenes, DSM30053
Experimental: as §4, §5

[13] = system: Pseudomonas aeruginosa ATCC27853; assay: Susceptibility testing, MIC microdilution; assay type: cell-based
Experimental: as §4, §5

Bacillus subtilis DSM-10 = assay: Susceptibility testing, MIC microdilution; assay type: cell-based; conditions: Bacillus subtilis, DSM10
Experimental: as §4, §5

[14] = system: Candida albicans DSM-1665; assay: Susceptibility testing, MIC microdilution; assay type: cell-based; conditions: Candida albicans, DSM1665
Experimental: as §4, §5

[15] = system: Escherichia coli ATCC35218; assay: Susceptibility testing, MIC microdilution; assay type: cell-based
Experimental: as §4, §5

[16] = system: Enterococcus faecalis ATCC29212; assay: Susceptibility testing, MIC microdilution; assay type: cell-based
Experimental: as §4, §5

[17] = system: Escherichia coli DSM-26863 (tolC3); assay: Susceptibility testing, MIC microdilution; assay type: cell-based; conditions: Escherichia coli, DSM26863
Experimental: as §4, §5

[18] = system: Acinetobacter baumannii DSM-30008; assay: Susceptibility testing, MIC microdilution; assay type: cell-based; conditions: Acinetobacter baumannii, DSM30008
Experimental: as §4, §5

[19] = system: Chromobacterium violaceum DSM-30191; assay: Susceptibility testing, MIC microdilution; assay type: cell-based; conditions: Chromobacterium violaceum, DSM30191
Experimental: as §4, §5

[20] = system: Mycobacterium smegmatis mc^2155 ATCC700084; assay: Susceptibility testing, MIC microdilution; assay type: cell-based; conditions: Mycolicibacterium smegmatis, ATCC700084|MC^2155
Experimental: as §4, §5

[21] = system: Klebsiella pneumoniae DSM-30104; assay: Susceptibility testing, MIC microdilution; assay type: cell-based; conditions: Klebsiella pneumoniae, DSM30104
Experimental: as §4, §5

T1 sequence (P20083 whole entry): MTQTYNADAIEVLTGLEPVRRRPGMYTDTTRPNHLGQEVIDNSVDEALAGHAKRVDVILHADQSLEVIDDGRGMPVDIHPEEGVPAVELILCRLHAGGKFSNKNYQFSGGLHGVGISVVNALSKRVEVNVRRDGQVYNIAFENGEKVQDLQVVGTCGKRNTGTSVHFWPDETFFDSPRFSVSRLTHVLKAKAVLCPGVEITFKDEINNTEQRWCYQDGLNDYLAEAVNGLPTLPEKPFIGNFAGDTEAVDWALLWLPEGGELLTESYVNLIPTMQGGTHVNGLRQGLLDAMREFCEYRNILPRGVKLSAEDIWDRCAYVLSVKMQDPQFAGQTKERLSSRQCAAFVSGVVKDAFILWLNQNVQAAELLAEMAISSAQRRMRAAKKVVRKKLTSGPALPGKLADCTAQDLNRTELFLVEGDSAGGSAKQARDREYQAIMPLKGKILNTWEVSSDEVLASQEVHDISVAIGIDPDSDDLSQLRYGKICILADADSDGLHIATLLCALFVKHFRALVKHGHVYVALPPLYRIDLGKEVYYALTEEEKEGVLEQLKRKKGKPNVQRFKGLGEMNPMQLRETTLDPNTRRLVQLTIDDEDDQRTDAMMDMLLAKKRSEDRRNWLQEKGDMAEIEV
T1 sequence (P0AFI2 whole entry): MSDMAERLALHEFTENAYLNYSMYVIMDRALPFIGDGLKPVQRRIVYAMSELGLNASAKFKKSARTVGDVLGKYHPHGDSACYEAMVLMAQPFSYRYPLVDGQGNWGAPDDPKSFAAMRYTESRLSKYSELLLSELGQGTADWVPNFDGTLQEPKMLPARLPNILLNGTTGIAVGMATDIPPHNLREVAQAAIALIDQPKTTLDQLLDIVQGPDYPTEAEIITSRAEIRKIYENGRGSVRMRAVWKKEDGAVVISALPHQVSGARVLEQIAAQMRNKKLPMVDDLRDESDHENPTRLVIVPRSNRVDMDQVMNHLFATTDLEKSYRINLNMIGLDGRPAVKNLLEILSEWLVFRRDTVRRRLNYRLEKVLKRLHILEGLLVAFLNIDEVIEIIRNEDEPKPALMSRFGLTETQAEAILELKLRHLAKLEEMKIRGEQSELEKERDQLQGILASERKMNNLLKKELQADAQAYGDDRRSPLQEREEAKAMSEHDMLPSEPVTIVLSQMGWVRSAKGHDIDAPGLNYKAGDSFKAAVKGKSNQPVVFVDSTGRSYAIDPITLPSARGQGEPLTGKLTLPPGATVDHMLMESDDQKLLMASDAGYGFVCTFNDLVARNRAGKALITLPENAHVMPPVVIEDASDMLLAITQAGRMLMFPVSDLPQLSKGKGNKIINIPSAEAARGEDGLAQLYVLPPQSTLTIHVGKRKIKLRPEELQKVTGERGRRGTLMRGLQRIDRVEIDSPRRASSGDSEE

Compound | concentration at which E. coli topo IV activity was inhibited (only the highest tested concentration) (E. coli topoisomerase IV) [µM] | MIC [1] [µg/mL] | IC50 [2] [µM] | concentration at which human topo II activity was inhibited (only the highest tested concentration) [2] [µM] | MIC [3] [µg/mL] | MIC [4] [µg/mL] | MIC [5] [µg/mL] | MIC [6] [µg/mL] | MIC [7] [µg/mL] | MIC [8] [µg/mL] | MIC [9] [µg/mL] | MIC [10] [µg/mL] | MIC [11] [µg/mL] | MIC (Pichia anomala DSM-6766) [µg/mL] | MIC [12] [µg/mL] | MIC [13] [µg/mL] | MIC (Bacillus subtilis DSM-10) [µg/mL] | MIC [14] [µg/mL] | MIC [15] [µg/mL] | MIC [16] [µg/mL] | further results
CO[C@H](C(=O)Nc1ccc(C(=O)Nc2ccc(C(=O)Nc3ccc(C(=O)O)cc3OC(C)C)c(O)c2OC(C)C)cc1)[C@H](NC(=O)c1ccc(NC(=O)c2ccc([N+](=O)[O-])cc2)cc1)C(=O)O [cystobactamide A, Cystobactamide A] | 815 | 14.7 (≈ 16 µM) | > 160 | 815 | 0.5 (≈ 0.543 µM) | 0.9 (≈ 0.977 µM) | > 59 | 0.5 (≈ 0.543 µM) | 0.9 (≈ 0.977 µM) | > 59 | 0.23 (≈ 0.25 µM) | 0.06 (≈ 0.0652 µM) | 0.12 (≈ 0.13 µM) | > 59 | > 59 | > 59 | 0.12 (≈ 0.13 µM) | > 59 | 0.9 (≈ 0.977 µM) | 0.06 (≈ 0.0652 µM) | IC50 (E. coli topoisomerase IV; IC50 Topo IV, E. coli topoisomerase IV): ~815 µM; IC50 (E. coli topoisomerase IV; IC50 in the E. coli Topoisomerase IV inhibition assay, averages of three independent experiments): > 160 µM; MIC [17]: 0.5 µg/mL (≈ 0.543 µM); MIC [18]: 7.4 µg/mL (≈ 8.04 µM); MIC [19]: > 59 µg/mL; MIC [20]: > 59 µg/mL; MIC [21]: > 59 µg/mL
CC(C)Oc1cc(C(=O)O)ccc1NC(=O)c1ccc(NC(=O)c2ccc(N)cc2)c(OC(C)C)c1O [cystobactamide C, Cystobactamide C] | 300 | 65 (≈ 128 µM) | > 60 | 300 | 8.1 (≈ 16 µM) | 8.1 (≈ 16 µM) | > 65 | 8.1 (≈ 16 µM) | 16.3 (≈ 32.1 µM) | 65 (≈ 128 µM) | 8.1 (≈ 16 µM) | 4.1 (≈ 8.08 µM) | 8.1 (≈ 16 µM) | > 65 | > 33 | 65 (≈ 128 µM) | 2 (≈ 3.94 µM) | > 65 | 16.3 (≈ 32.1 µM) | 4.1 (≈ 8.08 µM) | IC50 (E. coli topoisomerase IV; E. coli topoisomerase IV, read-out: IC50 Topo IV): ~300 µM; IC50 (E. coli topoisomerase IV; averages of three independent experiments, read-out: IC50 in the E. coli Topoisomerase IV inhibition assay): > 60 µM; ratios IC50(topo IV)/IC50(gyrase) (E. coli topoisomerase IV; topo IV vs. gyrase): ~42; MIC [17]: 4.1 µg/mL (≈ 8.08 µM); MIC [18]: 32.5 µg/mL (≈ 64 µM); MIC [19]: 16.3 µg/mL (≈ 32.1 µM); MIC [20]: > 65 µg/mL; MIC [21]: 65 µg/mL (≈ 128 µM)
